In patent US5334595A, “Pyrazoloquinolones as anticancer agents” (priority 1992, dated 1994):
Where two headings read alike, the source gives them in different places.

How the values were obtained:
[1] = target: T1, human topoisomerase II (Homo sapiens, UniProt P11388); experiment: Mammalian topoisomerase II inhibition assay (topo II covalently attached to DNA, relative to mAMSA); format: biochemical; settings: read-out: topo II inh. EC50
T1 construct: Topo II was purified from late log phase suspension cultures of HeLa WIS; endogenous in cells; host or cells: HeLa WIS
Excerpt: The inhibition of human topoisomerase II (hereafter topo II) was quantitated by a procedure adapted from that described by Trask et al., EMBO J., 3, 671-676 (1984). The assay quantitates the amount of topo II covalently attached to DNA at equilibrium during a topo II reaction. This assay determines the potential of a compound to stabilize this complex, which potential is closely related to the cytotoxicity of the compound.
Topo II was purified from late log phase suspension cultures of HeLa WIS by an adaptation of the method described by Per et al., Mol. Pharmacol., 32, 17-25 (1987).
Assays (in duplicate) were assembled at 4° C. Assay mix (25 μl) was distributed in Beckman (No. 265270) 1.5 mL microtiter tubes followed by the addition of 5 μl test compound to yield the final concentrations of assay components:
The assay mix including the test compound was incubated for 20 minutes at 37° C. The reaction was terminated at 37° C. by the addition of 3 μl 10% SDS followed by the addition of 266 μl 10 mM Tris-Cl pH 7.5, 20 μg/ml BSA, 20 μg/ml calf thymus DNA, 1% SDS.
A SDS/protein precipitate was formed by the addition of 28 μl 2.5M KCl followed by chilling on ice for a minimum of 10 minutes. The precipitate was collected and washed with a Brandell cell harvester on a GFB glass fiber filter membrane as follows. The contents of the assay tube were drawn up into the harvester. The tube was then rinsed 7× with 10 mM Tris-Cl pH 7.5, 1 mM EDTA and 100 mM KCl. The precipitate was washed with 1 L of a solution of 10 mM Tris-Cl pH 7.5, 1 mMEDTA, 100 mM KCl followed by 1 L of 95% ethyl alcohol and finally 0.5 L 70% of ethyl alcohol (per 48 samples in each case). After drying, CPM was determined by liquid scintillation counting with 5 ml Biofluor (NEN Research Products) or Readisafe (Beckman Instruments Inc.) cocktail.
Preparation of test compound--A stock solution (6 mg/ml) of test compound was prepared either in 0.1N sodium hydroxide or 0.2N hydrogen chloride. This solution then was diluted 1/5 into water and serially thereafter in either 0.02N sodium hydroxide or 0.04N hydrogen chloride, respectively. The stock solution and serial dilution of the test compound was stored at -20° C. prior to testing.
Screening of test compound--As an initial screen, the test compound was tested at a final concentration of 2, 20 and 200 μg/ml. The compound was then retested at a range of concentrations (usually 2-3×steps) bridging their approximate EC50 's, as estimated by the prescreen.
Controls--A solvent control which indicates the base level of topo II-DNA complex formed in the absence of the test compound was included in each test. A control, in which topo II was omitted, was included for each test compound at the highest drug concentration tested.
Reference Agent--A dose response curve with mAMSA at 0.01, 0.08, 0.16, 0.32, 1.0 and 10 μg/ml was included in each test.
The maximal DNA-topo II complex formed is taken as that equal to that formed at the nearly saturating dose of mAMSA (10 μg/ml).

[2] = tested on: P388 murine leukemia cells; experiment: In vitro cytotoxicity, continuous (48-hour) exposure of P388 cells; format: cell-based; settings: Mus musculus; P388, continuous exposure (48-hour); read-out: in vitro cytotoxicity IC50, cont. exp.
Description: (§1) In vitro cytotoxicity was assayed by determining cell survival following exposure of P388 murine leukemia cells to a range of test compound concentrations. Cytotoxicity was quantitated following either a one-hour exposure or continuous exposure of P388 cells to test compound.
(§2) A Manual of Basic Technique. […] Briefly, following drug exposure cells were plated in soft agar and incubated (37°, 5% CO2) for 7-10 days during which time viable cells form visible colonies. Cytotoxicity following continuous exposure of cells to test compound was assayed by quantitating total P388 cells on a Coultier Counter following a 48-hour co-incubation of test compound with cells. P388 cells were maintained in log phase throughout the duration of cytotoxicity assays.
(§3) The percentage of cells surviving relative to an untreated control was graphed as a function of increasing drug concentration.

[3] = tested on: P388 murine leukemia cells; experiment: In vitro cytotoxicity, one-hour exposure, clonogenic survival of P388 cells; format: cell-based; settings: Mus musculus, read-out: in vitro cytotoxicity IC50, 1 hr exp.; P388, 1 hr exposure
Description: as §1, §2, §3

[4] = conc. achieving 50% of maximal effect of mAMSA, topo II from HeLa cells
[5] = footnote c: bell-shaped dose response curve noted, 50% of maximal effect of mAMSA

T1 sequence (P11388 whole entry): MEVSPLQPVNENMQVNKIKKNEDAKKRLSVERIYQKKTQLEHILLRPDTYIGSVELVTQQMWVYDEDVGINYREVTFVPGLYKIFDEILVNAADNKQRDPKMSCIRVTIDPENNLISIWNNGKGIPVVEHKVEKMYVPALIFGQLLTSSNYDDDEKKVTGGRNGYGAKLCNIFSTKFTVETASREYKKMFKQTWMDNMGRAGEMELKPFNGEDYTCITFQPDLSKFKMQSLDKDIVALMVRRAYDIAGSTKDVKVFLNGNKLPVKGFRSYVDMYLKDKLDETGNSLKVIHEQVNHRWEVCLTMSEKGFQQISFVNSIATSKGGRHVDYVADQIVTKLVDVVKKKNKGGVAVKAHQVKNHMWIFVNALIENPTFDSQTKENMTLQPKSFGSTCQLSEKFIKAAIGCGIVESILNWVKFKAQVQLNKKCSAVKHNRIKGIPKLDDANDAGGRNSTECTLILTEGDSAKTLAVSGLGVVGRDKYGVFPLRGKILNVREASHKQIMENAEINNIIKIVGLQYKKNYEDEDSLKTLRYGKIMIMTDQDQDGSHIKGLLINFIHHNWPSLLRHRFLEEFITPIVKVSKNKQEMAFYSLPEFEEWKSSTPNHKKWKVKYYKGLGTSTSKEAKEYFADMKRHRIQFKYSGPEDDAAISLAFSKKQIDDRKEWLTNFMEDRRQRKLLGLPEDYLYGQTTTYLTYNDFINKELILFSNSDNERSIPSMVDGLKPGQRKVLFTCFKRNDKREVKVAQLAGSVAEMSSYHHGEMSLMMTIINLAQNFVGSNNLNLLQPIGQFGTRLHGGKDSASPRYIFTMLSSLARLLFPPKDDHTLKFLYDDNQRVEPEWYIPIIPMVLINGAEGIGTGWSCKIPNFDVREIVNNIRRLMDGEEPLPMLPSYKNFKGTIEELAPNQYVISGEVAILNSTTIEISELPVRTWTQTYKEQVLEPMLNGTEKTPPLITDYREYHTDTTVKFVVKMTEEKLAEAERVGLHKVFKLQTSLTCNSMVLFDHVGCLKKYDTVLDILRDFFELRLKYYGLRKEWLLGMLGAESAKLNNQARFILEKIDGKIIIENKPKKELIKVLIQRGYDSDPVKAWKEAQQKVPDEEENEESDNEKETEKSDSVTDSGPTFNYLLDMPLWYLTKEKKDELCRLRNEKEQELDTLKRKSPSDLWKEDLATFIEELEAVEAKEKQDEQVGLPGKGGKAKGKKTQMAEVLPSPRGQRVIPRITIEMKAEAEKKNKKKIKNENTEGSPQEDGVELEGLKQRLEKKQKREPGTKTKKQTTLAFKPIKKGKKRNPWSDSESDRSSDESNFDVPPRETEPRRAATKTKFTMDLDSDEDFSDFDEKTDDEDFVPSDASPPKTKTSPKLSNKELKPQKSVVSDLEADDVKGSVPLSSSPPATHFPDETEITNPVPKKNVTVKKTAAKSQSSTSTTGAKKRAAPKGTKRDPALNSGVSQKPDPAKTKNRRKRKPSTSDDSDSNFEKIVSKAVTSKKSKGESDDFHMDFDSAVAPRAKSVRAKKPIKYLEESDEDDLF

Row | Structure (SMILES) | EC50 [1, 4] | IC50 [2] | IC50 [3] | EC50 [1] | EC50 [1, 5]
1 | Cc1cc(-c2c(F)cc3c4nn(Cc5ccc(O)cc5)c(=O)c-4cn(C4CC4)c3c2F)cc(C)n1 [Example 35] | 1.5 µM | 0.25 µM | – | – | –
2 | CCN(CC)CCn1nc2c3cc(F)c(-c4cc(C)nc(C)c4)c(F)c3n(C3CC3)cc-2c1=O [Example 15] | – | – | 0.45 µM | 93 µM | –
3 | CO[C@@H]1CCCC[C@@H]1n1nc2c3cc(F)c(-c4cc(C)nc(C)c4)c(F)c3n(C3CC3)cc-2c1=O (relative stereo) [Example 45] | 6.3 µM | – | 0.57 µM | – | –
4 | Cc1cc(-c2c(F)cc3c4nn(-c5ccccc5O)c(=O)c-4cn(C4CC4)c3c2F)cc(C)n1 [Example 5, 5-Cyclopropyl-6,8-difluoro-2,5-dihydro-2-(2-hydroxyphenyl)-7-(2,6-dimethyl-4-pyridinyl) -3H-pyrazolo[4,3-c]quinolin-3-one] | 1.2 µM | 0.15 µM | – | – | –
5 | COc1ccccc1Cn1nc2c3cc(F)c(-c4cc(C)nc(C)c4)c(F)c3n(C3CC3)cc-2c1=O [Example 32] | 5.1 µM | 1.2 µM | – | – | –
6 | Cc1cc(-c2c(F)cc3c4nn(CCO)c(=O)c-4cn(C4CC4)c3c2F)cc(C)n1 [Example 10] | 6.4 µM | 1.4 µM | – | – | –
7 | Cc1cc(-c2c(F)cc3c4nn([C@H]5CC[C@H](NC=O)CC5)c(=O)c-4cn(C4CC4)c3c2F)cc(C)n1 [Example 58, 2-(trans-4-formamidocyclohexyl)-5-cyclopropyl-6,8-difluoro-2,5-dihydro-7-(2,6-dimethyl-4-pyridinyl)-3H-pyrazolo[4,3-c]quinolin-3-one] | 1.5 µM | – | 9.1 µM | – | –
8 | Cc1cc(-c2c(F)cc3c4nn(-c5c(F)c(F)c(F)c(F)c5F)c(=O)c-4cn(C4CC4)c3c2F)cc(C)n1 [Example 25] | 3.4 µM | 2.2 µM | – | – | –
9 | CCOC(=O)Cn1nc2c3cc(F)c(-c4cc(C)nc(C)c4)c(F)c3n(C3CC3)cc-2c1=O [Example 9] | 6.1 µM | 0.15 µM | – | – | –
10 | Cc1cc(-c2c(F)cc3c4nn(CCc5ccccc5)c(=O)c-4cn(C4CC4)c3c2F)cc(C)n1 [Example 37] | 5 µM | 2.2 µM | – | – | –
11 | COC(Cn1nc2c3cc(F)c(-c4cc(C)nc(C)c4)c(F)c3n(C3CC3)cc-2c1=O)OC [Example 12] | 23 µM | – | – | – | –
12 | CC(=O)N[C@H]1CC[C@H](n2nc3c4cc(F)c(-c5cc(C)nc(C)c5)c(F)c4n(C4CC4)cc-3c2=O)CC1 [Example 52b] | 9.8 µM | – | 1.2 µM | – | –
13 | Cc1ccc(-n2nc3c4cc(F)c(-c5cc(C)nc(C)c5)c(F)c4n(C4CC4)cc-3c2=O)cc1 [Example 24] | 8.9 µM | 4.9 µM | – | – | –
14 | Cc1cc(-c2c(F)cc3c4nn(Cc5ccccc5O)c(=O)c-4cn(C4CC4)c3c2F)cc(C)n1 [Example 33] | 3.8 µM | 1.4 µM | – | – | –
15 | Cc1cc(-c2c(F)cc3c4nn(CCCCO)c(=O)c-4cn(C4CC4)c3c2F)cc(C)n1 [Example 11] | 4.2 µM | 0.88 µM | – | – | –
16 | Cc1cc(-c2c(F)cc3c4nn(C(C)C)c(=O)c-4cn(C4CC4)c3c2F)cc(C)n1 [Example 3, 5-Cyclopropyl-6,8-difluoro-7-(2,6-dimethyl-4-pyridinyl)-2,5-dihydro-2-(2-propyl) -3H-pyrazolo[4,3-c]quinolin-3-one] | 5 µM | 0.53 µM | – | – | –
17 | Cc1cc(-c2c(F)cc3c4nn(C5CCC(C)CC5)c(=O)c-4cn(C4CC4)c3c2F)cc(C)n1 (centres unmarked) [Example 47] | 3.1 µM | – | 1.4 µM | – | –
18 | Cc1cc(-c2c(F)cc3c4nn(-c5ccncc5)c(=O)c-4cn(C4CC4)c3c2F)cc(C)n1 [Example 30] | – | 1.2 µM | – | – | 8 µM
19 | Cc1cc(-c2c(F)cc3c4nn(C5CCC(c6ccccc6)CC5)c(=O)c-4cn(C4CC4)c3c2F)cc(C)n1 (centres unmarked) [Example 48] | 4.5 µM | – | 8.4 µM | – | –

Row | Structure (SMILES) | EC50 [1, 4] | IC50 [2] | IC50 [3] | EC50 [1] | EC50 [1, 5]
20 | COc1ccccc1-n1nc2c3cc(F)c(-c4cc(C)nc(C)c4)c(F)c3n(C3CC3)cc-2c1=O [Example 26] | 5 µM | 0.34 µM | – | – | –
21 | Cc1cc(-c2c(F)cc3c4nn(CCc5ccccc5O)c(=O)c-4cn(C4CC4)c3c2F)cc(C)n1 [Example 39] | – | – | – | – | 9.6 µM
22 | CC(=O)N[C@H]1CC[C@@H](n2nc3c4cc(F)c(-c5cc(C)nc(C)c5)c(F)c4n(C4CC4)cc-3c2=O)CC1 [Example 52a] | 7.4 µM | – | 1.3 µM | – | –
23 | COc1ccccc1CCn1nc2c3cc(F)c(-c4cc(C)nc(C)c4)c(F)c3n(C3CC3)cc-2c1=O [Example 38] | 11 µM | – | – | – | –
24 | Cc1cc(-c2c(F)cc3c4nn(C5CCc6ccccc6C5)c(=O)c-4cn(C4CC4)c3c2F)cc(C)n1 (centres unmarked) [Example 44] | 3.7 µM | 1.5 µM | – | – | –
25 | Cc1cc(-c2c(F)cc3c4nn(C(C)(C)C)c(=O)c-4cn(C4CC4)c3c2F)cc(C)n1 [Example 8] | 6.9 µM | 3.5 µM | – | – | –
26 | Cc1cc(-c2c(F)cc3c4nn(C)c(=O)c-4cn(C4CC4)c3c2F)cc(C)n1 [Example 7] | 5.9 µM | 0.51 µM | – | – | –
27 | Cc1cc(-c2c(F)cc3c4nn(CCC#N)c(=O)c-4cn(C4CC4)c3c2F)cc(C)n1 [Example 13] | 6.7 µM | 1.4 µM | – | – | –
28 | Cc1cc(-c2c(F)cc3c4nn(-c5ccccn5)c(=O)c-4cn(C4CC4)c3c2F)cc(C)n1 [Example 29] | 2.8 µM | 0.74 µM | – | – | –
29 | Cc1cc(-c2c(F)cc3c4nn(CC(=O)O)c(=O)c-4cn(C4CC4)c3c2F)cc(C)n1 [Example 53, 2-[5-Cyclopropyl-6,8-difluoro-2,5-dihydro-7-(2,6-dimethyl-4-pyridinyl)-3-oxo-3H-pyrazolo[4,3-c]quinolinyl]acetic acid] | 10 µM | 18 µM | – | – | –
30 | Cc1cc(-c2c(F)cc3c4nn(CCN5CCCCC5)c(=O)c-4cn(C4CC4)c3c2F)cc(C)n1 [Example 19] | – | – | 0.44 µM | 210 µM | –
31 | CCCCn1nc2c3cc(F)c(-c4cc(C)nc(C)c4)c(F)c3n(C3CC3)cc-2c1=O [Example 4, 2-(1-Butyl)-5-cyclopropyl-6,8-difluoro-2,5-dihydro-7-(2,6-dimethyl-4-pyridinyl) -3H-pyrazolo[4,3-c]quinolin-3-one] | 2.9 µM | 1.5 µM | – | – | –
32 | Cc1cc(-c2c(F)cc3c4nn(-c5ccc(O)cc5)c(=O)c-4cn(C4CC4)c3c2F)cc(C)n1 [Example 27] | 4.9 µM | 2.6 µM | – | – | –
33 | COc1ccc(Cn2nc3c4cc(F)c(-c5cc(C)nc(C)c5)c(F)c4n(C4CC4)cc-3c2=O)cc1 [Example 34] | 3.2 µM | 0.44 µM | – | – | –
34 | Cc1cc(-c2c(F)cc3c4nn(Cc5ccccc5)c(=O)c-4cn(C4CC4)c3c2F)cc(C)n1 [Example 31] | 3.7 µM | 0.14 µM | – | – | –
35 | Cc1cc(-c2c(F)cc3c4nn(-c5cccc6ccccc56)c(=O)c-4cn(C4CC4)c3c2F)cc(C)n1 [Example 28] | 2.9 µM | 0.32 µM | – | – | –
36 | Cc1cc(-c2c(F)cc3c4nn(CC(F)(F)F)c(=O)c-4cn(C4CC4)c3c2F)cc(C)n1 [Example 2] | 6.8 µM | 1.4 µM | – | – | –
37 | COc1cc(Cn2nc3c4cc(F)c(-c5cc(C)nc(C)c5)c(F)c4n(C4CC4)cc-3c2=O)cc(OC)c1OC [Example 36] | 6.4 µM | 1.2 µM | – | – | –
